Source: patent US20120213855A1, “DOSAGE FORMS FOR WEAKLY IONIZABLE COMPOUNDS” (CIMA LABS INC., priority 2011, published 2012)

Experiments:
[1] = In vivo dog study, serum pharmacokinetics by LC/MS/MS (Example 4)
Method: Both formulations were administered orally.
For each formulation 4 or 5 dogs were studied. Prior to administration, the animals were fasted overnight and approximately 2 hours post-dose, the animals had access to regular rations for the remaining portion of the study. The animals were dosed multiple times over the course of the study with at least a two-week recovery period between dosing phases. Each formulation was administered as a single dose, with the intravenous dosages occurring in the cephalic vein.
Blood samples were collected from the cephalic or saphenous veins. The samples were stored at room temperature for about 1 hour or until being processed for serum. The samples were centrifuged at 3200 RPM for 10 minutes at 22-26° C. Serum samples were stored at 4±5° C. until analyzed.
The samples were evaluated using LC/MS/MS.

[2] = In vitro dissolution in 900 mL DI water, USP type 2 apparatus (Example 3); assay type: physicochemical; details: 37° C., 50 rpm, 15 mg meloxicam, when introduced to the dissolution medium
Method: Dissolution was performed in 900 mL of DI water. Dissolution studies were conducted in a USP type 2 apparatus (Varian Inc., Cary, N.C.). Paddle speed and bath temperature were set to 50 rpm and 37° C., respectively. Samples (5 mL) were withdrawn at 5, 10, 15, 30, 45, and 60 minutes and analyzed by UV spectroscopic methods at 360 nm (Varian Cary, Australia). Dissolution experiment was performed in duplicates unless otherwise specified.

[3] = In vivo human study, pharmacokinetics in healthy volunteers (Example 7)
Method: The study consisted of a total of eighteen healthy adult volunteers (male and female). Testing was conducted over three phases, with a minimum fourteen day washout period between each phase of the study. Test formulation A and C were randomly dosed during phases 1 and 2, while test formulation B was dosed entirely during phase 3. […] Each formulation was administered as a single dose, with approximately 240 mL of room temperature water.
Twenty-seven blood samples per subject per phase were collected at various time points over the course of 96 hours following dosing. Pharmacokinetic sampling occurred within 90 minutes prior to dosing (0 hour) and after dose administration at 0.5, 1, 1.5, 2, 2.5, 3, 3.5, 4, 4.5, 5, 5.5, 6, 6.5, 7, 7.5, 8, 8.5, 9, 9.5, 10, 12, 16, 24, 48, 72, and 96 hours. The samples were stored at room temperature for about 1 hour or until being processed for serum. The samples were centrifuged at 3000 RPM for 10 minutes at 4° C. (±10° C.). Serum samples were stored at −20±10° C. until analyzed.
The samples were evaluated using a validated bioanalytical method and according to the Bioanalytical Laboratory's Standard Operating Procedures and FDA guidelines.

elimination phase [1]: slow elimination phase
meloxicam dissolved in water [2]: 12%
elimination phase [3]: slow elimination phase
SMILES: Cc1cnc(NC(=O)C2=C(O)c3ccccc3S(=O)(=O)N2C)s1 [Meloxicam, 4-hydroxy-2-methyl-N-(5-methyl-2-thiazolyl)-2H-1,2-benzothiazine-3-carboxamide-1,1-dioxide]
